Earlier results, collected in patent EP1110914A2, “Water treatment method and apparatus” (ROHM AND HAAS COMPANY, priority 1999, dated 2001).
Where two headings read alike, the source gives them in different places.

Details: in water

CO2 Conc @ 15° C (pressure 101 kPa (1 bar)): 2,523 ppm
CO2 Conc @ 15° C (pressure 507 kPa (5 bar)): 12,613 ppm
CO2 Conc @ 15° C (pressure 931 kPa (9.2 bar)): 23,207 ppm
CO2 Conc @ 20° C (pressure 101 kPa (1 bar)): 2,174 ppm
CO2 Conc @ 20° C (pressure 507 kPa (5 bar)): 10,868 ppm
CO2 Conc @ 20° C (pressure 931 kPa (9.2 bar)): 19,996 ppm
CO2 Conc @ 25° C (pressure 101 kPa (1 bar)): 1,876 ppm
CO2 Conc @ 25° C (pressure 507 kPa (5 bar)): 9,381 ppm
CO2 Conc @ 25° C (pressure 931 kPa (9.2 bar)): 17,261 ppm
SMILES: O=C=O [CO2, carbon dioxide]
